Assay results published in publication PMC10682394, “A papain-like cysteine protease-released small signal peptide confers wheat resistance to wheat yellow mosaic virus” (Nature Communications, 2023).
Peptide text beside a SMILES is read from it. * marks the point of attachment. AMC = Cc1cc(=O)oc2cc(N*)ccc12; Cbz = O=C(OCc1ccccc1)*

Target: T1, TaRD21A (TaRD21A^S; TaRD21A^R in A96S rows) (Triticum aestivum, UniProt A0A3B6DKH2)
T1 construct: gene LOC123054921; GST fusion from E. coli BL21 (purified), or RFP fusion expressed in N. benthamiana leaves (apoplastic fluid); active bands 25-40 kDa
T1 sequence (A0A3B6DKH2 24-463, stated change not applied): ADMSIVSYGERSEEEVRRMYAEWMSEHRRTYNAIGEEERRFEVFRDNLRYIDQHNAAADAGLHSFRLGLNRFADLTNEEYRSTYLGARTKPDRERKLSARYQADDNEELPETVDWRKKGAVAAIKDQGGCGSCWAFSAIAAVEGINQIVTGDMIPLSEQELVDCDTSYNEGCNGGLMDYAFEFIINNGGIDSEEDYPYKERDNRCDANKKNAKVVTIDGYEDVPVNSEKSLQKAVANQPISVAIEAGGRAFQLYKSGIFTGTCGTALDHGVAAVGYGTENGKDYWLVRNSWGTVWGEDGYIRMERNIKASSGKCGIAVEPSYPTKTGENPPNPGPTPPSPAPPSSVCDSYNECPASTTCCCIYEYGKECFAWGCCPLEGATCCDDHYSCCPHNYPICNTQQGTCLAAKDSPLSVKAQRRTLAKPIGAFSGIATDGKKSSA
Assay: fluorescent substrate assay, purified TaRD21A^S-GST
Type: biochemical
Conditions: 10 uM substrate

SMILES	fluorescent substrate assay, purified TaRD21A^S-GST (FR motif)	fluorescent substrate assay, purified TaRD21A^S-GST (RR motif)
Cc1cc(=O)oc2cc(NC(=O)[C@H](CCCNC(=N)N)NC(=O)[C@H](Cc3ccccc3)NC(=O)OCc3ccccc3)ccc12 [Z-Phe-Arg-7-amido-4-methylcoumarin] (Cbz-Phe-Arg-{AMC})	examined using fluorescent substrates containing RR/FR motifs	
Cc1cc(=O)oc2cc(NC(=O)[C@H](CCCNC(=N)N)NC(=O)[C@H](CCCNC(=N)N)NC(=O)OCc3ccccc3)ccc12 [Z-Arg-Arg-AMC] (Cbz-Arg-Arg-{AMC})		examined using fluorescent substrates containing RR/FR motifs
